Reference: US20120100990A1, “4 -AMINOPICOLINATES AND THEIR USE AS HERBICIDES” (SYNGENTA CROP PROTECTION LLC, priority 2009, published 2012)

Columns and labels:
Format in all cases: in vivo
[1] = system: Alopecurus myosuroides (ALOMY); assay: Pre-emergence biological efficacy, glasshouse pot test; conditions: 312 h, 1,000 g/ha, evaluated after 13 days, 100=total damage, 0=no damage, read-out: Percentage damage caused to weed species, pre-emergence, ALOMY
Outline: (§1)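 Damage ratings (0 no damage to 100 total damage) were taken 13 days after treatment. Compound had been applied at 1000 or 250 g/ha as an aqueous spray from acetone/water (50:50) with 0.5% Tween 20, one day after sowing in soil.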

[2] = system: Echinochloa crus-galli (ECHCG); assay: as above; conditions: 312 h, 1,000 g/ha, evaluated after 13 days, 100=total damage, 0=no damage, read-out: Percentage damage caused to weed species, pre-emergence, ECHCG
Outline: as §1

Solanum nigrum (SOLNI) [3] = assay: as above; conditions: 312 h, 1,000 g/ha, evaluated after 13 days, 100=total damage, 0=no damage, read-out: Percentage damage caused to weed species, pre-emergence, SOLNI
Outline: as §1

[4] = system: Ipomea hederaceae (IPOHE); assay: as above; conditions: Ipomoea hederacea, 312 h, 1,000 g/ha, evaluated after 13 days, 100=total damage, 0=no damage, read-out: Percentage damage caused to weed species, pre-emergence, IPOHE
Outline: as §1

Setaria faberi (SETFA) [5] = assay: as above; conditions: 312 h, 1,000 g/ha, evaluated after 13 days, 100=total damage, 0=no damage, read-out: Percentage damage caused to weed species, pre-emergence, SETFA
Outline: as §1

[6] = system: Amaranthus retroflexus (AMARE); assay: as above; conditions: 312 h, 1,000 g/ha, evaluated after 13 days, 100=total damage, 0=no damage, read-out: Percentage damage caused to weed species, pre-emergence, AMARE
Outline: as §1

[7] = system: Alopecurus myosuroides (ALOMY); assay: Post-emergence biological efficacy, glasshouse pot test; conditions: 312 h, 1,000 g/ha, evaluated after 13 days, 100=total damage, 0=no damage, read-out: Percentage damage caused to weed species, post-emergence, ALOMY
Outline: (§2)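 Weed seedlings raised in standard soil for 8 days in glasshouse (24/16 °C day/night, 14 h light, 65% humidity) were sprayed with compound in acetone/water (50:50) with 0.5% Tween 20 at 1000 or 250 g/ha. Damage scored visually after 13 days (0 = none, 100 = total).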

[8] = system: Echinochloa crus-galli (ECHCG); assay: as above; conditions: 312 h, 1,000 g/ha, evaluated after 13 days, 100=total damage, 0=no damage, read-out: Percentage damage caused to weed species, post-emergence, ECHCG
Outline: as §2

Solanum nigrum (SOLNI) [9] = assay: as above; conditions: 312 h, 1,000 g/ha, evaluated after 13 days, 100=total damage, 0=no damage, read-out: Percentage damage caused to weed species, post-emergence, SOLNI
Outline: as §2

[10] = system: Ipomea hederaceae (IPOHE); assay: as above; conditions: Ipomoea hederacea, 312 h, 1,000 g/ha, evaluated after 13 days, 100=total damage, 0=no damage, read-out: Percentage damage caused to weed species, post-emergence, IPOHE
Outline: as §2

Setaria faberi (SETFA) [11] = assay: as above; conditions: 312 h, 1,000 g/ha, evaluated after 13 days, 100=total damage, 0=no damage, read-out: Percentage damage caused to weed species, post-emergence, SETFA
Outline: as §2

[12] = system: Amaranthus retroflexus (AMARE); assay: as above; conditions: 312 h, 1,000 g/ha, evaluated after 13 days, 100=total damage, 0=no damage, read-out: Percentage damage caused to weed species, post-emergence, AMARE
Outline: as §2

SMILES	pest or weed control at 1000 g/ha [1] [%]	pest or weed control at 1000 g/ha [2] [%]	pest or weed control at 1000 g/ha (Solanum nigrum (SOLNI) [3]) [%]	pest or weed control at 1000 g/ha [4] [%]	pest or weed control at 1000 g/ha (Setaria faberi (SETFA) [5]) [%]	pest or weed control at 1000 g/ha [6] [%]	pest or weed control at 1000 g/ha [7] [%]	pest or weed control at 1000 g/ha [8] [%]	pest or weed control at 1000 g/ha (Solanum nigrum (SOLNI) [9]) [%]	pest or weed control at 1000 g/ha [10] [%]	pest or weed control at 1000 g/ha (Setaria faberi (SETFA) [11]) [%]	pest or weed control at 1000 g/ha [12] [%]
COC(=O)c1nc(C2CC2)cc(NCc2ccco2)c1Cl [Compound 26-83, 3-chloro-6-cyclopropyl-4-[(furan-2-ylmethyl)-amino]-pyridine-2-carboxylic acid methyl ester]	40	20	100	100	20	100	0	0	90	100	0	100
COC(=O)c1nc(-c2ccc(Cl)c(OC)c2F)cc(NCc2ccco2)c1Cl [Compound 26-164, 3-chloro-6-(4-chloro-2-fluoro-3-methoxy-phenyl)-4-[(furan-2-ylmethyl)-amino]-pyridine-2-carboxylic acid methyl ester]	50	90	100	100	90	100	70	70	100	90	90	100
C=Cc1c(NCc2ccco2)cc(-c2ccc(Cl)c(OC)c2F)nc1C(=O)OC [Compound 26-174, 6-(4-chloro-2-fluoro-3-methoxy-phenyl)-3-ethenyl-4-[(furan-2-ylmethyl)-amino]-pyridine-2-carboxylic acid methyl ester]	20	30	90	90	10	80	10	20	100	50	0	100
COC(=O)c1nc(-c2ccc(Cl)c(N(C)C)c2F)cc(NCc2ccco2)c1Cl [Compound 26-245, 3-Chloro-6-(4-chloro-3-dimethylamino-2-fluoro-phenyl)-4-[(furan-2-ylmethyl)-amino]-pyridine-2-carboxylic acid methyl ester]	10	30	60	60	30	100	40	50	90	60	60	100
C=Cc1c(NCc2ccco2)cc(-c2ccc(Cl)c(N(C)C)c2F)nc1C(=O)OC [Compound 26-255, 6-(4-Chloro-3-dimethyl-amino-2-fluoro-phenyl)-3-ethenyl-4-[(furan-2-ylmethyl)-amino]-pyridine-2-carboxylic acid methyl ester]	10	20	70	10	10	30	0	0	70	10	0	20
